In PubChem BioAssay (NCI):
Where “and” joins values, the source holds several entries; their conditions need not be identical. Equal values may be shown once.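 Results reflect a 48-hour exposure of cells in 96-well plates to compound at five concentrations. GI50: concentration for 50% inhibition of growth. Definition used: TGI = concentration required for complete inhibition of growth.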

Assays:
Test in all cases: NCI tumour cell line growth inhibition, 48 h
[1] = tested on: DMS 114 small cell lung
[2] = tested on: DMS 273 small cell lung
[3] = tested on: KM20L2 colon
[4] = tested on: LXFL 529 NSCLC
[5] = tested on: M19-MEL melanoma
[6] = tested on: SNB-78 CNS
[7] = tested on: XF 498 CNS
[8] = tested on: RXF-631 renal
[9] = tested on: MDA-N
[10] = tested on: P388 leukemia

Structure (SMILES) | TGI [1] [µM] | TGI [2] [µM] | TGI [3] [µM] | TGI [4] [µM] | TGI [5] [µM] | TGI [6] [µM] | TGI [7] [µM] | TGI [9] | also measured
CN=C(N)NC | > 100 | > 100 | > 100 | > 100 | > 100 | > 100 | > 100 | – | –
C/C(=N\NS(=O)(=O)c1c(C)cc(C)cc1C)c1ccc[n+]([O-])n1 | 36.8 | 34.8 | 54.6 | 23.4 | 29 | 68.3 | – | – | TGI [8]: 93 µM
CNC(=S)N(C1CCCCC1)C1CCCCC1 | – | – | – | – | – | – | – | > 100 µM | –
CCOc1ccc(N=Cc2ccc3ccccc3n2)cc1 | – | > 100 | > 100 | > 100 | > 100 | > 100 | > 100 | – | TGI [8]: > 100 µM
CN(C)C1C(=O)C(C(N)=O)=C(O)C2(O)C(=O)C3=C(O)c4c(O)cccc4C(C)(O)C3CC12 (configuration not stated) | – | – | – | – | – | – | – | 38.9 µM and > 100 µM | GI50 [9]: 17.8 µM and > 100 µM
CC(=O)Oc1cc(Cl)c(OC(C)=O)c2c(OC(C)=O)c(C)c(O[Si](C)(C)C(C)(C)C)cc12 | 15.1 | 20 | 32.1 | – | – | 9.82 | 32.8 | – | –
CCN(CC)CCC(=O)N1C/C(=C/c2ccccc2)C(=O)/C(=C\c2ccccc2)C1 | 4.54 | 3.15 | 3.5 | 3.27 | 3.68 | – | 7.57 | 2.45 µM | –
CC1=CC2=C(C#N)C(=O)OC2(C)C(c2ccccc2)C1 (configuration not stated) | – | – | – | – | – | – | – | > 100 µM | –
Fc1ccc2c(c1)cc1ccc3cccc4ccc2c1c34 | > 100 | > 100 | > 100 | > 100 | > 100 | > 100 | > 100 | – | TGI [8]: > 100 µM
Cc1nc(-n2nc(-c3ccccc3)cc2-c2ccccc2)sc1C(=O)/C=C/c1ccc(Cl)cc1 | 28.3 | > 100 | 77.6 | – | 39.6 | > 100 | – | – | –
COC(=O)c1ccc(/C=C/S(=O)(=O)c2ccccc2)cc1 | > 100 | > 100 | > 100 | > 100 | > 100 | > 100 | > 100 | – | TGI [8]: > 100 µM
CN[C@H]1CC[C@]23C[C@]24CC[C@]2(C)[C@@H]([C@H](C)N(C)C)CC[C@@]2(C)[C@@H]4CC[C@H]3C1(C)C | – | – | – | – | – | – | – | 29.2 µM | –
CSC1SCC2C(=O)N(C)C(C(C)C)C(=O)OCC(NC(=O)c3cnc4ccccc4n3)C(=O)NC(C)C(=O)N(C)C1C(=O)N(C)C(C(C)C)C(=O)OCC(NC(=O)c1cnc3ccccc3n1)C(=O)NC(C)C(=O)N2C (configuration not stated) | 8.38e-06 | – | – | – | – | – | 5.67e-05 | – | GI50 [1]: 3.45e-06 µM; GI50 [2]: 4e-05 µM; GI50 [3]: 5.29e-06 µM; GI50 [10]: 4.99 pM; GI50 [6]: 8.96e-07 µM; GI50 [7]: 3.06e-05 µM
NC(N)=NC(N)=Nc1ccc(S(N)(=O)=O)cc1 | – | – | – | – | – | – | – | > 100 µM | –
CCCCCCC/C=C1\CCC(CN(C)C)C1=O (configuration not stated) | – | – | 34.6 | 20.8 | – | 35.8 | 35.4 | 26.8 µM | TGI [8]: > 71.4 µM
CCC(=O)Nc1ncnc2ncn(C(=O)CC)c12 | – | – | – | – | – | – | – | > 100 µM | –
CCOC(=O)C(=O)C(/C(=N/N(C)C)C(=O)Nc1ccc(C)cc1C)c1nc2ccccc2[nH]c1=O (configuration not stated) | – | – | – | – | – | – | – | > 100 µM | –
CC(CCC(=O)O)c1ccc(Br)cc1 (configuration not stated) | > 100 | > 100 | > 100 | > 100 | > 100 | > 100 | – | – | –
CC(C)c1cc(C(=O)[O-])c(O)c(C(C)C)c1.CC(C)c1cc(C(=O)[O-])c(O)c(C(C)C)c1.CC(C)c1cc(C(=O)[O-])c(O)c(C(C)C)c1.CC(C)c1cc(C(=O)[O-])c(O)c(C(C)C)c1.CC(C)c1cc(C(=O)[O-])c(O)c(C(C)C)c1.CC(C)c1cc(C(=O)[O-])c(O)c(C(C)C)c1.[Cu+2].[Mn+2].[Mn+2] | 34.6 | > 100 | > 100 | 46.3 | 18.7 | > 100 | 71.5 | – | GI50 [1]: 17.8 µM; GI50 [2]: 22.4 µM; GI50 [3]: 26.1 µM; GI50 [4]: 19.6 µM; GI50 [5]: 5.67 µM; GI50 [6]: 37 µM; GI50 [7]: 30.2 µM
CC(=O)OC1(C#N)CC2OC1C1N=NN(C(=O)OC(C)(C)C)C21 (configuration not stated) | > 74.9 | > 100 | > 100 | > 100 | > 100 | > 77 | > 100 | – | –
CCCCCCC(O)C(O)CCC(O)C1CCC(CCCCC(O)CC2=CC(C)OC2=O)O1 (configuration not stated) | – | – | – | – | – | – | – | 29.1 µM | GI50 [9]: 12.3 µM
CC(C)Cc1ccc(C(C)/C=C2\CCC(CN3CCCCC3)C2=O)cc1 (configuration not stated) | 4.78 | 7.2 | 29.1 | 3.55 | 6.08 | 35.1 | 16 | 12.8 µM | –
CCN(CC)/[N+]([O-])=N/OCC(C)O (configuration not stated) | > 100 | > 100 | – | – | > 100 | > 100 | > 100 | – | TGI [8]: > 100 µM
CC(C)(C)C1CCC(=O)C(C(O)CC2CC(=O)N(c3ccccc3)C(=O)C2)C1 (configuration not stated) | > 100 | > 100 | > 100 | > 100 | > 100 | > 100 | > 100 | – | TGI [8]: > 100 µM
